Measured values reported in patent publication US20060069132A1, “Azolecarboxamide herbicides” (priority 2004, published 2006).

Assays:
common mallow = assay: Test E pre-/postemergence herbicide test; type: in vivo, Malva sylvestris; details: Preemergence
Method in brief: (§1)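 Postemergence treatment targeted plants at the 1- to 4-leaf stage (2–18 cm), alongside preemergence treatment of planted seed; both used a non-phytotoxic solvent mixture with surfactant. Visual ratings, 0 = no effect to 100 = complete control, were taken 12 to 14 days later.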

mustard = assay: Test E pre-/postemergence herbicide test; type: in vivo, Brassica nigra; details: Preemergence
Method in brief: as §1

windgrass = assay: Test C postemergence herbicide test; type: in vivo, Apera spica-venti
Method in brief: (§2)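 Visual rating, 0 (no effect) to 100 (complete control), vs. controls at 12–14 d in greenhouse. Postemergence: 1–4-leaf plants, 2–18 cm. Paddy: flooded, barnyardgrass at 2-leaf stage.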

blackgrass = assay: Test C postemergence herbicide test; type: in vivo, Alopecurus myosuroides
Method in brief: as §2

common ragweed = assay: Test E pre-/postemergence herbicide test; type: in vivo, Ambrosia elatior; details: Preemergence
Method in brief: as §1

winter barley = assay: Test C postemergence herbicide test; type: in vivo, Hordeum vulgare
Method in brief: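 Postemergence sprays applied to plants 2 to 18 cm tall (1- to 4-leaf stage); paddy species grown to 2-leaf stage under flooding. After 12 to 14 days in greenhouse, visual rating versus untreated controls on 0–100 scale (0 no effect, 100 complete control).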

Italian ryegrass = assay: Test E pre-/postemergence herbicide test; type: in vivo, Lolium multiflorum; details: Preemergence
Method in brief: as §1

goosegrass = assay: Test E pre-/postemergence herbicide test; type: in vivo, Eleusine indica; details: Preemergence
Method in brief: as §1

green foxtail = assay: Test E pre-/postemergence herbicide test; type: in vivo, Setaria viridis; details: Preemergence
Method in brief: as §1

wild oat = assay: Test C postemergence herbicide test; type: in vivo, Avenafatua
Method in brief: as §2

southern sandbur = assay: Test E pre-/postemergence herbicide test; type: in vivo, Cenchrus echinatus; details: Preemergence
Method in brief: as §1

Canada horseweed = assay: Test E pre-/postemergence herbicide test; type: in vivo, Erigeron Canadensis; details: Preemergence
Method in brief: as §1

tropical spiderwort = assay: Test E pre-/postemergence herbicide test; type: in vivo, Commelina benghalensis; details: Preemergence
Method in brief: as §1

dallisgrass = assay: Test E pre-/postemergence herbicide test; type: in vivo, Paspalum dilatatum; details: Preemergence
Method in brief: as §1

[1] = 250 g ai/ha, scale 0 (no effect) to 100 (complete control)
[2] = 500 g ai/ha, scale 0 (no effect) to 100 (complete control)
[3] = Postemergence, 500 g ai/ha, scale 0 to 100, 0 no effect, 100 complete control
[4] = postemergence, 125 g ai/ha, scale 0 to 100
[5] = postemergence, 62 g ai/ha, scale 0 to 100
[6] = Postemergence, 500 g ai/ha, scale 0 to 100
[7] = Postemergence, 250 g ai/ha, scale 0 to 100, 0 no effect, 100 complete control

## CCNC(=O)c1cccc(NC(=O)c2nn(C(C)(C)C)nc2C)c1 [Compound 392]
Common mallow; 62 g ai/ha, scale 0 to 100
  Plant response rating, Mallow: 10
Common mallow; 125 g ai/ha, scale 0 to 100
  Plant response rating, Mallow: 80
Common mallow; [1]
  Plant response rating, Mallow: 95
Common mallow; [2]
  Plant response rating, Mallow: 95
mustard; 62 g ai/ha, scale 0 to 100
  Plant response rating, Black Mustard: 60
mustard; [1]
  Plant response rating, Black Mustard: 85
mustard; [2]
  Plant response rating, Black Mustard: 100
windgrass; [3]
  Plant response rating, Windgrass: 65
windgrass; [4]
  Plant response rating, Windgrass: 55
windgrass; [5]
  Plant response rating, Windgrass: 35
blackgrass; [6]
  Blackgrass plant response rating: 65
blackgrass; [7]
  Plant response rating, Blackgrass: 45
blackgrass; [4]
  Plant response rating, Blackgrass: 45
blackgrass; [5]
  Plant response rating, Blackgrass: 35
Common ragweed; 62 g ai/ha, scale 0 to 100
  Plant response rating, Ragweed: 30
Common ragweed; 125 g ai/ha, scale 0 to 100
  Plant response rating, Ragweed: 30
Common ragweed; [1]
  Plant response rating, Ragweed: 70
Common ragweed; [2]
  Plant response rating, Ragweed: 100
Winter barley; [6]
  Barley, Winter plant response rating: 35
Winter barley; Postemergence, 125 g ai/ha, scale 0 to 100, 0 no effect, 100 complete control
  Plant response rating, Barley, Winter: 35
Winter barley; [7]
  Plant response rating, Barley, Winter: 35
Winter barley; postemergence, 62 g ai/ha, scale 0 to 100 (0 no effect, 100 complete control)
  Plant response rating, Barley, Winter: 35
Italian ryegrass; 62 g ai/ha, scale 0 to 100
  Plant response rating, Ryegrass, Italian: 10
Italian ryegrass; 125 g ai/ha, scale 0 to 100
  Plant response rating, Ryegrass, Italian: 60
Italian ryegrass; [1]
  Plant response rating, Ryegrass, Italian: 70
Italian ryegrass; [2]
  Plant response rating, Ryegrass, Italian: 80
goosegrass; 62 g ai/ha, scale 0 to 100
  Plant response rating, Goosegrass: 20
goosegrass; 125 g ai/ha, scale 0 to 100
  Plant response rating, Goosegrass: 70
goosegrass; [1]
  Plant response rating, Goosegrass: 85
goosegrass; [2]
  Plant response rating, Goosegrass: 95
Green foxtail; 62 g ai/ha, scale 0 to 100
  Plant response rating, Foxtail, Green: 10
Green foxtail; [1]
  Plant response rating, Foxtail, Green: 70
Green foxtail; [2]
  Plant response rating, Foxtail, Green: 95
Wild oat; [3]
  Plant response rating, Oat, Wild: 60
Wild oat; [4]
  Plant response rating, Oat, Wild: 40
Wild oat; [5]
  Plant response rating, Oat, Wild: 30
Southern sandbur; 62 g ai/ha, scale 0 to 100
  Plant response rating, Sandbur: 0
Southern sandbur; 125 g ai/ha, scale 0 to 100
  Plant response rating, Sandbur: 10
Southern sandbur; [1]
  Plant response rating, Sandbur: 20
Southern sandbur; [2]
  Plant response rating, Sandbur: 70
Canada horseweed; 62 g ai/ha, scale 0 to 100
  Plant response rating, Horseweed: 60
Canada horseweed; 125 g ai/ha, scale 0 to 100
  Plant response rating, Horseweed: 60
Canada horseweed; [1]
  Plant response rating, Horseweed: 75
Canada horseweed; [2]
  Plant response rating, Horseweed: 85
Tropical spiderwort; 125 g ai/ha, scale 0 to 100
  Plant response rating, Spiderwort: 50
Tropical spiderwort; [1]
  Plant response rating, Spiderwort: 95
Tropical spiderwort; [2]
  Plant response rating, Spiderwort: 100
dallisgrass; 62 g ai/ha, scale 0 to 100
  Plant response rating, Dallisgrass: 10
dallisgrass; 125 g ai/ha, scale 0 to 100
  Plant response rating, Dallisgrass: 60
dallisgrass; [1]
  Plant response rating, Dallisgrass: 75
dallisgrass; [2]
  Plant response rating, Dallisgrass: 100
